In the series the target is cathepsin B (Homo sapiens, UniProt P07858). In words: Time-dependent fluorescence emission of ICG systems with or without cathepsin B. The series is classed as biochemical. The following applies: after 24 h at 37° C. in PBS. As to the method: The equivalent ICG concentration in all systems was 6 μg/mL. Fluorescence emission spectra of these systems were acquired over the course of 48 h. The excitation wavelength of 740 nm was used to obtain the fluorescence spectra. For the afore-mentioned experiments, spectra and fluorescence intensities were obtained using a CLARIOstar® High Performance Monochromator Multimode microplate reader (BMG LABTECH, UK).

Consider one molecule from patent publication US11040101B2, “Nanoparticles for cancer therapy and diagnosis” (UCL BUSINESS PLC, priority 2019, dated 2021).

For the molecule `CC1(C)C(/C=C/C=C/C=C/C=C2\N(CCCCS(=O)(=O)O)c3ccc4ccccc4c3C2(C)C)=[N+](CCCCS(=O)(=O)[O-])c2ccc3ccccc3c21` [free ICG, Indocyanine green], the “fluorescence emission of free ICG” value is “suppressed”.
